According to article PMC11794677, “Self‐Assembly of a Conjugate of Lipoic Acid With a Collagen‐Stimulating Pentapeptide Showing Cytocompatibility and Wound Healing Properties, and Chemical and Photolytic Disassembly” (Journal of Peptide Science, 2025):

Legend:
[1] = system: type I/III collagen production by HDFa cells; assay: Collagen quantification, picrosirius red (Direct red 80) staining; format: cell-based, Human; details: 72 h incubation, different concentrations, absorbance 490 nm, ANOVA, n = 3
Method: To quantify collagen production, HDFa cells were seeded at a confluency of 1 × 10^4 cells/well into 96‐well plates in DMEM/F12 + 5 μg/mL of insulin and incubated for 3 days in DMEM/F12 without supplements as control, or DMEM/F12 + different concentrations of lipoyl‐KTTKS and conventional supplements (ascorbic acid 1 mM, TGFβ1 0.025 ng/mL and insulin 10 μg/mL). After incubation, the cells were washed three times with PBS and were fixed with cold ethanol 70%. The plate was transferred to a −80°C ultra‐freezer for 10 min and washed with water to remove any residual ethanol. After fixation, the collagen was incubated overnight in a solution containing Direct red 1 mg/mL in picric acid at 4°C. After this final incubation, the fixed cells were washed with distilled water to remove any residual dye, and the collagen and cells were then treated with 1‐mM NaOH for 10 min at room temperature. The resulting absorbance was measured at 490 nm using an Infinite F50 microplate reader (TECAN, Switzerland).
Because of the great commercial interest in KTTKS pentapeptides in cosmetic products with proposed antiaging properties resulting from cellular matrix stimulation, collagen production assays were performed using the technique of picrosirius red (commercial name, Direct red 80) staining (UV/vis absorbance) measurements.

[2] = SAXS form factor fits (core-shell cylinder, generalized Gaussian coil); format: physicochemical; note: values in Å
Method: SAXS experiments were performed on beamline B21 [28] at Diamond (Didcot, UK). The sample solution was loaded into the 96‐well plate of an EMBL BioSAXS robot and then injected via an automated sample exchanger into a quartz capillary (1.8‐mm internal diameter) in the X‐ray beam. The quartz capillary was enclosed in a vacuum chamber, to avoid parasitic scattering. After the sample was injected into the capillary and reached the X‐ray beam, the flow was stopped during the SAXS data acquisition. Beamline B21 was operated with a fixed camera length (3.9 m) and fixed energy (12.4 keV). The images were captured using a PILATUS 2M detector. Data processing was performed using dedicated beamline software ScÅtter.
Cryo‐TEM was used to probe potential aggregation in solution above the CAC (3 wt% aqueous solution). […] The presence of such structures was also confirmed by SAXS and SANS data (Figure 3), which reveal form factor features that can be fitted using a core‐shell cylinder form factor, consistent with extended fibril structures. The cylinder radius is 25 Å, which is approximately equal to the estimated length of the molecule considering the lipid chain plus a pentapeptide in a β‐sheet conformation. […] For the SAXS data, it was necessary to include a contribution in the fits from unaggregated peptide, which gives rise to scattering at high q, described using a generalized Gaussian coil form factor (generalized refers to allowing the Flory exponent for the coil to vary from the value ν = 0.5 for an unperturbed coil). SANS data for 3 wt% solutions of lipoyl‐KTTKS in D2O can be fitted to a core‐shell cylinder form factor, consistent with SAXS, with fit parameters listed in Table S1. It was not necessary to allow for unaggregated monomer in fitting the SANS data, which may be because of the higher background and/or altered scattering contrast compared with SAXS. The cylinder radius and shell thickness obtained from the fits to the SANS data are in excellent agreement with the parameters obtained from the SAXS fit.
The ring‐opening of the lipoyl moiety can be achieved under reductive conditions. We examined the effect of chemical reduction on the self‐assembled structures of lipoyl‐KTTKS using TCEP [tris(2‐carboxyethyl)phosphine] as reductant. […] The SAXS data in Figure 3a show a considerable reduction in scattering intensity after addition of TCEP and the SANS profile in Figure 3b is barely above background after addition of TCEP. The SAXS data can be described using a form factor for monomer scattering with a power‐law intensity function at low q to account for a small fraction of irregular aggregates. The disruption of the fibrils upon TCEP addition was also confirmed by cryo‐TEM (images shown in Figure S1) because no aggregate structures were observed after addition of TCEP. Circular dichroism (CD) spectra shown in Figure 4 are characterized by a negative minimum in the CD spectrum at 196 nm along with the absence of defined features at higher wavelength, characteristic of a primarily disordered conformation. However, taking the difference between the CD spectra for lipoyl‐KTTKS without and with TCEP produces a spectrum (green spectrum in Figure 5) with a minimum near 215 nm, characteristic of β‐sheet structure. This is consistent with the observation that lipoyl‐KTTKS forms fibril‐like structures above a CAC detected by ThT binding to β‐sheet structure and as observed by cryo‐TEM, SAXS and SANS.
Table S1. SANS and SAXS data fitted parameters. Data fitted using SASfit,^[1-2] using a long cylindrical shell form factor model, with allowance for monomers via a Generalized Gaussian coil factor for SAXS data. […]

[3] = 3 wt%, long cylindrical shell form factor
[4] = 3 wt%, long cylindrical shell form factor, listed as lipoyl-KTTKS

Q: For “lipoyl‐KTTKS [peptide amphiphile comprising a conjugate of lipoic acid to pentapeptide KTTKS]”, which “Collagen production compared with the control or conventional stimulants” value [1] is on record?
A: no statistically significant increase

Q: And the “Rg radius of gyration (monomer)” value ([2]; 3 wt% with 2.6 wt% TCEP, generalized Gaussian coil form factor)?
A: 6.3 Å

Q: What about the “Rg radius of gyration (unaggregated peptide)” value ([2]; 3 wt%, generalized Gaussian coil form factor) of the same substance?
A: 22.0 Å

Q: And the L length [2, 3]?
A: 987 Å

Q: What about the “Ro outer radius (Gaussian polydispersity ΔR)” value [2, 3] of the same substance?
A: 25 Å

Q: What about the t shell thickness [2, 3] of the same substance?
A: 10 Å

Q: And the “Ro outer radius (Gaussian polydispersity ΔR)” value [2, 4]?
A: 25.0 ± 25.0 Å

Q: And the t shell thickness [2, 4]?
A: 10.0 Å
